{"source": "paper PMC12373846", "about": "“Hemoglobin as a pseudoperoxidase and drug target for oxidative stress-related diseases” (Signal Transduction and Targeted Therapy, 2025)", "assay_in_all_cases": "KINOMEscan", "assay_type_in_all_cases": "binding", "settings_in_all_cases": "10000 nM; read-out: Percent Control", "key": {"MKNK1": {"target": "T1, MKNK1 (Homo sapiens, UniProt Q9BUB5)", "T1 construct": "purchased DiscoverX KINOMEscan scanEDGE; Eurofins Cerep SafetyScreen87", "experimental": "(§1) The possibility of KDS12025 on kinase off-target, the KINOMEscan panel of scanEDGE assay was conducted in DiscoverX (CA, USA) using a site-directed competition binding with the test compounds. The assay results are given in Supplementary Table 4 and experimental information is available on the DiscoverX web page (www.discoverx.com). Moreover, the Delta SafetyScreen87 panel assay was conducted in Eurofins Discovery (Cerep, France). The assay results are given in Supplementary Table 5 and experimental information is available on the DiscoverX web page (https://www.eurofinsdiscoveryservices.com)."}, "KIT(D816V)": {"target": "T2, KIT(D816V) (Homo sapiens, UniProt P10721, D816V)", "T2 construct": "purchased DiscoverX KINOMEscan scanEDGE; Eurofins Cerep SafetyScreen87", "T2 sequence (P10721 26-976 D816V)": "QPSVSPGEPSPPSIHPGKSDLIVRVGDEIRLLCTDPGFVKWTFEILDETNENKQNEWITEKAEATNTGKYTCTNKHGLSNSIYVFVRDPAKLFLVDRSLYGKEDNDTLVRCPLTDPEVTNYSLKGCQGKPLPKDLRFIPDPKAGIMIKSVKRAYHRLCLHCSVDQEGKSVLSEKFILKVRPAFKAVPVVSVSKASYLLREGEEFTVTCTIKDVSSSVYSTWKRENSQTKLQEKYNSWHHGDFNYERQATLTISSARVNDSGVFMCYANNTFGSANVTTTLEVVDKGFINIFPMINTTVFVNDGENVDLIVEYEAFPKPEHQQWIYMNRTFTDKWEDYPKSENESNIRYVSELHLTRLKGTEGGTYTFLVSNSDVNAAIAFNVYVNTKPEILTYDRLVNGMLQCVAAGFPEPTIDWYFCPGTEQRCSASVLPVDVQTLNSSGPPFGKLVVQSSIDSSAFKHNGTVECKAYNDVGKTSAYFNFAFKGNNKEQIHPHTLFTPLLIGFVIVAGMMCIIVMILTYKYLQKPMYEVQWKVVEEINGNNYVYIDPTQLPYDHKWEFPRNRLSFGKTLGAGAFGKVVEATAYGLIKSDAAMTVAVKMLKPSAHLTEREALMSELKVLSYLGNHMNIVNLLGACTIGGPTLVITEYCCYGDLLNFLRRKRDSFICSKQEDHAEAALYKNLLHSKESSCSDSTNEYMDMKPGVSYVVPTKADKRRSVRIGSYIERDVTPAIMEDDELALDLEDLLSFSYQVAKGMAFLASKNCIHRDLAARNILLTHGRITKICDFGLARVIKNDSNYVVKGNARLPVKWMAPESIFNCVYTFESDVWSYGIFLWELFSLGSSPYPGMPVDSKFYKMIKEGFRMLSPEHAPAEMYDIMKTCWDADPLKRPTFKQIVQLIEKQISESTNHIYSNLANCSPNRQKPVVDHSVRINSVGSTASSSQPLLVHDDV", "experimental": "as §1"}, "ERBB2": {"target": "T3, ERBB2 (Homo sapiens, UniProt P04626)", "T3 construct": "purchased DiscoverX KINOMEscan scanEDGE; Eurofins Cerep SafetyScreen87", "experimental": "as §1"}, "YANK3": {"target": "T4, YANK3 (Homo sapiens, UniProt Q86UX6)", "T4 construct": "purchased DiscoverX KINOMEscan scanEDGE; Eurofins Cerep SafetyScreen87", "experimental": "as §1"}, "EGFR": {"target": "T5, EGFR (Homo sapiens, UniProt P00533)", "T5 construct": "purchased DiscoverX KINOMEscan scanEDGE; Eurofins Cerep SafetyScreen87", "experimental": "as §1"}, "AKT1": {"target": "T6, AKT1 (Homo sapiens, UniProt P31749)", "T6 construct": "purchased DiscoverX KINOMEscan scanEDGE; Eurofins Cerep SafetyScreen87", "experimental": "as §1"}, "CDK2": {"target": "T7, CDK2 (Homo sapiens, UniProt P24941)", "T7 construct": "purchased DiscoverX KINOMEscan scanEDGE; Eurofins Cerep SafetyScreen87", "experimental": "as §1"}, "CSNK1D": {"target": "T8, CSNK1D (Homo sapiens, UniProt P48730)", "T8 construct": "purchased DiscoverX KINOMEscan scanEDGE; Eurofins Cerep SafetyScreen87", "experimental": "as §1"}, "ABL1-phosphorylated": {"target": "T9, ABL1-phosphorylated (Homo sapiens, UniProt P00519)", "T9 construct": "purchased DiscoverX KINOMEscan scanEDGE; Eurofins Cerep SafetyScreen87", "experimental": "as §1"}, "CDK7": {"target": "T10, CDK7 (Homo sapiens, UniProt P50613)", "T10 construct": "purchased DiscoverX KINOMEscan scanEDGE; Eurofins Cerep SafetyScreen87", "experimental": "as §1"}, "PDPK1": {"target": "T11, PDPK1 (Homo sapiens, UniProt O15530)", "T11 construct": "purchased DiscoverX KINOMEscan scanEDGE; Eurofins Cerep SafetyScreen87", "experimental": "as §1"}, "RAF1": {"target": "T12, RAF1 (Homo sapiens, UniProt P04049)", "T12 construct": "purchased DiscoverX KINOMEscan scanEDGE; Eurofins Cerep SafetyScreen87", "experimental": "as §1"}, "ULK2": {"target": "T13, ULK2 (Homo sapiens, UniProt Q8IYT8)", "T13 construct": "purchased DiscoverX KINOMEscan scanEDGE; Eurofins Cerep SafetyScreen87", "experimental": "as §1"}, "ADCK3": {"target": "T14, ADCK3 (Homo sapiens, UniProt Q8NI60)", "T14 construct": "purchased DiscoverX KINOMEscan scanEDGE; Eurofins Cerep SafetyScreen87", "experimental": "as §1"}, "AKT2": {"target": "T15, AKT2 (Homo sapiens, UniProt P31751)", "T15 construct": "purchased DiscoverX KINOMEscan scanEDGE; Eurofins Cerep SafetyScreen87", "experimental": "as §1"}, "PAK2": {"target": "T16, PAK2 (Homo sapiens, UniProt Q13177)", "T16 construct": "purchased DiscoverX KINOMEscan scanEDGE; Eurofins Cerep SafetyScreen87", "experimental": "as §1"}, "PKAC-alpha": {"target": "T17, PKAC-alpha (Homo sapiens, UniProt P17612)", "T17 construct": "purchased DiscoverX KINOMEscan scanEDGE; Eurofins Cerep SafetyScreen87", "experimental": "as §1"}, "AXL": {"target": "T18, AXL (Homo sapiens, UniProt P30530)", "T18 construct": "purchased DiscoverX KINOMEscan scanEDGE; Eurofins Cerep SafetyScreen87", "experimental": "as §1"}, "EGFR(L858R)": {"target": "T19, EGFR(L858R) (Homo sapiens, UniProt P00533, L858R)", "T19 construct": "purchased DiscoverX KINOMEscan scanEDGE; Eurofins Cerep SafetyScreen87", "experimental": "as §1"}, "BRAF": {"target": "T20, BRAF (Homo sapiens, UniProt P15056)", "T20 construct": "purchased DiscoverX KINOMEscan scanEDGE; Eurofins Cerep SafetyScreen87", "experimental": "as §1"}, "[1]": {"target": "T21, TYK2(JH1domain-catalytic) (Homo sapiens, UniProt P29597)", "T21 construct": "TYK2(JH1domain-catalytic); purchased DiscoverX KINOMEscan scanEDGE; Eurofins Cerep SafetyScreen87", "T21 sequence (P29597 876-1187 limits assumed)": "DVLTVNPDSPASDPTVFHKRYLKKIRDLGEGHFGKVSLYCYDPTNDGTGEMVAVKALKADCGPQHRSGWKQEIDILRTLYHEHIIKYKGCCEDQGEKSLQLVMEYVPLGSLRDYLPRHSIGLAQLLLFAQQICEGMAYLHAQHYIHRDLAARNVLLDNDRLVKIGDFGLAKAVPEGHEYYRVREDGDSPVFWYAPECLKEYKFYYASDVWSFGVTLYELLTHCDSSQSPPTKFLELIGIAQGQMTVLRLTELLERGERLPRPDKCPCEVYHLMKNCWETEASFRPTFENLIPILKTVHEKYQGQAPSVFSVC", "experimental": "as §1"}, "DCAMKL1": {"target": "T22, DCAMKL1 (Homo sapiens, UniProt O15075)", "T22 construct": "purchased DiscoverX KINOMEscan scanEDGE; Eurofins Cerep SafetyScreen87", "experimental": "as §1"}, "PIK3CA": {"target": "T23, PIK3CA (Homo sapiens, UniProt P42336)", "T23 construct": "purchased DiscoverX KINOMEscan scanEDGE; Eurofins Cerep SafetyScreen87", "experimental": "as §1"}, "ERK1": {"target": "T24, ERK1 (Homo sapiens, UniProt P27361)", "T24 construct": "purchased DiscoverX KINOMEscan scanEDGE; Eurofins Cerep SafetyScreen87", "experimental": "as §1"}, "PDGFRB": {"target": "T25, PDGFRB (Homo sapiens, UniProt P09619)", "T25 construct": "purchased DiscoverX KINOMEscan scanEDGE; Eurofins Cerep SafetyScreen87", "experimental": "as §1"}, "TIE2": {"target": "T26, TIE2 (Homo sapiens, UniProt Q02763)", "T26 construct": "purchased DiscoverX KINOMEscan scanEDGE; Eurofins Cerep SafetyScreen87", "experimental": "as §1"}, "[2]": {"target": "T27, JAK3(JH1domain-catalytic) (Homo sapiens, UniProt P52333)", "T27 construct": "JAK3(JH1domain-catalytic); purchased DiscoverX KINOMEscan scanEDGE; Eurofins Cerep SafetyScreen87", "T27 sequence (P52333 811-1124 limits assumed)": "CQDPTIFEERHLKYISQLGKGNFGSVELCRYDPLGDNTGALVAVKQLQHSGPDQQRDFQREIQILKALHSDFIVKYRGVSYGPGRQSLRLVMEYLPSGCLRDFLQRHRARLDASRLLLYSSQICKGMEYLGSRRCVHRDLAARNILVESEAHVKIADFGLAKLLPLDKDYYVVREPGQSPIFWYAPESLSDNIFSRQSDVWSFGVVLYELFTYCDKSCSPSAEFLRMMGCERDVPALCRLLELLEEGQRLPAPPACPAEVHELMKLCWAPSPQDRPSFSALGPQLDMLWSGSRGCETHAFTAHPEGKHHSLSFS", "experimental": "as §1"}, "BRAF(V600E)": {"target": "T28, BRAF(V600E) (Homo sapiens, UniProt P15056, V600E)", "T28 construct": "purchased DiscoverX KINOMEscan scanEDGE; Eurofins Cerep SafetyScreen87", "T28 sequence (P15056 whole entry V600E)": "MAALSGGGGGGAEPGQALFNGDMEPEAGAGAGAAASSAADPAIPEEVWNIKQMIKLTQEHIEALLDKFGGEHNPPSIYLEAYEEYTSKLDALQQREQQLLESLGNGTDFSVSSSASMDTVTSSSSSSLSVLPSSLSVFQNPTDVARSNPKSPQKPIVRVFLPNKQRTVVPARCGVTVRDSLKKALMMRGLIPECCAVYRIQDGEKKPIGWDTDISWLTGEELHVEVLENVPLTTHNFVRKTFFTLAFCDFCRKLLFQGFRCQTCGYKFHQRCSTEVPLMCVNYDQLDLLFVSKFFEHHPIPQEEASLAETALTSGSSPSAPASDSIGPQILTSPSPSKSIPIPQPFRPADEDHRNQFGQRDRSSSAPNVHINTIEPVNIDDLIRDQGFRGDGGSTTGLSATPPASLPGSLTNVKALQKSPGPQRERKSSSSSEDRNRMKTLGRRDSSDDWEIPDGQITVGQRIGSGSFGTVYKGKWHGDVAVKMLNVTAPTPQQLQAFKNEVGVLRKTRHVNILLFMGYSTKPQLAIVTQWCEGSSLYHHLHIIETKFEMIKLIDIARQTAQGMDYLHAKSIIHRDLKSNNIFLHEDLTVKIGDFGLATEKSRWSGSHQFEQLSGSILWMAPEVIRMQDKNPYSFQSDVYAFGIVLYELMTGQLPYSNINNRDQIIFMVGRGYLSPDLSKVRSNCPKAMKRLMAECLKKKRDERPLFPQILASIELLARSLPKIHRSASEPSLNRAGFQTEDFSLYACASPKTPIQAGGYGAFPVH", "experimental": "as §1"}, "ABL1-nonphosphorylated": {"target": "T29, ABL1-nonphosphorylated (Homo sapiens, UniProt P00519)", "T29 construct": "purchased DiscoverX KINOMEscan scanEDGE; Eurofins Cerep SafetyScreen87", "experimental": "as §1"}, "KIT": {"target": "T30, KIT (Homo sapiens, UniProt P10721)", "T30 construct": "purchased DiscoverX KINOMEscan scanEDGE; Eurofins Cerep SafetyScreen87", "T30 sequence (P10721 26-976)": "as the sequence (P10721 26-976 D816V) above, with V791D counted along it", "experimental": "as §1"}, "PIK3C2B": {"target": "T31, PIK3C2B (Homo sapiens, UniProt O00750)", "T31 construct": "purchased DiscoverX KINOMEscan scanEDGE; Eurofins Cerep SafetyScreen87", "experimental": "as §1"}, "MAP3K4": {"target": "T32, MAP3K4 (Homo sapiens, UniProt Q9Y6R4)", "T32 construct": "purchased DiscoverX KINOMEscan scanEDGE; Eurofins Cerep SafetyScreen87", "T32 sequence (Q9Y6R4 whole entry)": "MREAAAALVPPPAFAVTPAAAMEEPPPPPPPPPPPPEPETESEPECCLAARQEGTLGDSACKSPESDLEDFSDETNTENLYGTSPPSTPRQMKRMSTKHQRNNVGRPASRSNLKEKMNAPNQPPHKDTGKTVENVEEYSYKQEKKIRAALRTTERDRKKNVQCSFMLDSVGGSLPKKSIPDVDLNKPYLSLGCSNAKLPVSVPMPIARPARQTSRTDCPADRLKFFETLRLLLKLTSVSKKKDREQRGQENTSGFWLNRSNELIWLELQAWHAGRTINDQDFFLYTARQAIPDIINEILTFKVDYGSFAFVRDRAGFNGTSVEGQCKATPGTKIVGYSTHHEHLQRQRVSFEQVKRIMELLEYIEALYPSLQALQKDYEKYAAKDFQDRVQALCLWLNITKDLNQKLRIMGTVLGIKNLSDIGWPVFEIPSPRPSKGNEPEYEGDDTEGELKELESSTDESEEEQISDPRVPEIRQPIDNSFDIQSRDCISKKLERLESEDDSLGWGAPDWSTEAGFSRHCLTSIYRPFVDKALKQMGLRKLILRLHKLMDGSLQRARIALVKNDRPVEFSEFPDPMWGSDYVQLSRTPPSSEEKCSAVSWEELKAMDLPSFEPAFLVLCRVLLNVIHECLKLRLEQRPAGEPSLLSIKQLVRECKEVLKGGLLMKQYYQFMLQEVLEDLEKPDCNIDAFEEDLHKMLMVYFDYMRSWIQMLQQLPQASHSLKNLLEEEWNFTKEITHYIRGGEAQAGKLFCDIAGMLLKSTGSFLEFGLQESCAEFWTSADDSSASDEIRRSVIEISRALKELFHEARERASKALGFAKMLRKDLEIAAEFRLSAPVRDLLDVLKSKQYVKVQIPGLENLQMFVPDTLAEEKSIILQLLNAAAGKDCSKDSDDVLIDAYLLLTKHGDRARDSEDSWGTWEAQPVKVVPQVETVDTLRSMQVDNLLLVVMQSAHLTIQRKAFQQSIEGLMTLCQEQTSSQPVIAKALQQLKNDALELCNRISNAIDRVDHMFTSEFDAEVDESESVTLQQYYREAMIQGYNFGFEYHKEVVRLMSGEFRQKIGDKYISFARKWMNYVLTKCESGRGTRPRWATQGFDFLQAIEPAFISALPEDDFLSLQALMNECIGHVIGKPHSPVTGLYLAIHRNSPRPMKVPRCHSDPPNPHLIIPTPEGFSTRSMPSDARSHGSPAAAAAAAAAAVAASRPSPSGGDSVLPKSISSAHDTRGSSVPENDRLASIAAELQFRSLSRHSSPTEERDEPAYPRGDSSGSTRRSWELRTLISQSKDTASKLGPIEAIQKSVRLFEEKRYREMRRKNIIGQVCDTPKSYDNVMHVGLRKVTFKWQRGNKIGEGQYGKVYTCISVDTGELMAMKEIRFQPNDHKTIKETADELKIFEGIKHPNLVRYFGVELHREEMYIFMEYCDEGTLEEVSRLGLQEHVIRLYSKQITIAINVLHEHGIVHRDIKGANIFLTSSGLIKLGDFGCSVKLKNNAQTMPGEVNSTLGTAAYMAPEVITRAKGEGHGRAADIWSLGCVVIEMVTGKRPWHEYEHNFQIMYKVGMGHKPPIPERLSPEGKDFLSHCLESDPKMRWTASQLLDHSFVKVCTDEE", "experimental": "as §1"}, "MKNK2": {"target": "T33, MKNK2 (Homo sapiens, UniProt Q9HBH9)", "T33 construct": "purchased DiscoverX KINOMEscan scanEDGE; Eurofins Cerep SafetyScreen87", "T33 sequence (Q9HBH9 whole entry)": "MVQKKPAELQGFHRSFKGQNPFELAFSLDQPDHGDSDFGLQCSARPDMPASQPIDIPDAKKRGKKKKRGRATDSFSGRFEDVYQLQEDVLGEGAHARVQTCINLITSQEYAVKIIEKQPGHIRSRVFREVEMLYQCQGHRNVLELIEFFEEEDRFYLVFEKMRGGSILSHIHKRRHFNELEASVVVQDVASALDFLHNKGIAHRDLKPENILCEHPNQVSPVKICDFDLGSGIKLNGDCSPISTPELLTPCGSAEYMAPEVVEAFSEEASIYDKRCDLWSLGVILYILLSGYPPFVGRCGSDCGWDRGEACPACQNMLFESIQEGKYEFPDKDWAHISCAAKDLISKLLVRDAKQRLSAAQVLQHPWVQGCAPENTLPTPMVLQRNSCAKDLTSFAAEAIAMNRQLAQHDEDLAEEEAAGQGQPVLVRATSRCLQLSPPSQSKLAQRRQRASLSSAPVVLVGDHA", "experimental": "as §1"}, "FAK": {"target": "T34, FAK (Homo sapiens, UniProt Q05397)", "T34 construct": "purchased DiscoverX KINOMEscan scanEDGE; Eurofins Cerep SafetyScreen87", "experimental": "as §1"}, "FLT3": {"target": "T35, FLT3 (Homo sapiens, UniProt P36888)", "T35 construct": "purchased DiscoverX KINOMEscan scanEDGE; Eurofins Cerep SafetyScreen87", "experimental": "as §1"}, "PIM1": {"target": "T36, PIM1 (Homo sapiens, UniProt P11309)", "T36 construct": "purchased DiscoverX KINOMEscan scanEDGE; Eurofins Cerep SafetyScreen87", "experimental": "as §1"}, "CDK11": {"target": "T37, CDK11 (Homo sapiens, UniProt Q9BWU1)", "T37 construct": "purchased DiscoverX KINOMEscan scanEDGE; Eurofins Cerep SafetyScreen87", "experimental": "as §1"}, "CHEK1": {"target": "T38, CHEK1 (Homo sapiens, UniProt O14757)", "T38 construct": "purchased DiscoverX KINOMEscan scanEDGE; Eurofins Cerep SafetyScreen87", "T38 sequence (O14757 whole entry)": "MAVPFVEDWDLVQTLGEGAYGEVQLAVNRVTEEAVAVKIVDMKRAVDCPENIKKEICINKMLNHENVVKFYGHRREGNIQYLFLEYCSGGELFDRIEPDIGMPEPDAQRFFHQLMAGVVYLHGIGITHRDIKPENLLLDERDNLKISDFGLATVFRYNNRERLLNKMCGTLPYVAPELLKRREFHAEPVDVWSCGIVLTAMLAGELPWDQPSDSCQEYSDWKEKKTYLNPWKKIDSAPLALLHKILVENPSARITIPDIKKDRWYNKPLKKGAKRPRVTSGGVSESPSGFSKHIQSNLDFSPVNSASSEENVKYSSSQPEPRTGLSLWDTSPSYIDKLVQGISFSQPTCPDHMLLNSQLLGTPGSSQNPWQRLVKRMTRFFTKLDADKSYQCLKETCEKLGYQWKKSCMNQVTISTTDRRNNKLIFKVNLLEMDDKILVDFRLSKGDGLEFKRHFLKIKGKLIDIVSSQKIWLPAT", "experimental": "as §1"}, "MLK1": {"target": "T39, MLK1 (Homo sapiens, UniProt P80192)", "T39 construct": "purchased DiscoverX KINOMEscan scanEDGE; Eurofins Cerep SafetyScreen87", "experimental": "as §1"}}}
{"smiles": "CNc1ccc(NCCc2ccccc2OC)cc1.Cl", "note": "[KDS12025, N^1-(2-methoxyphenethyl)-N^4-methylbenzene-1,4-diamine hydrochloride salt]", "values": [{"measurement": "remaining binding at 10 µM", "setting": "MKNK1", "result": 100, "unit": "%"}, {"measurement": "remaining binding at 10 µM", "setting": "KIT(D816V)", "result": 91, "unit": "%"}, {"measurement": "remaining binding at 10 µM", "setting": "ERBB2", "result": 100, "unit": "%"}, {"measurement": "remaining binding at 10 µM", "setting": "YANK3", "result": 83, "unit": "%"}, {"measurement": "remaining binding at 10 µM", "setting": "EGFR", "result": 48, "unit": "%"}, {"measurement": "remaining binding at 10 µM", "setting": "AKT1", "result": 75, "unit": "%"}, {"measurement": "remaining binding at 10 µM", "setting": "CDK2", "result": 92, "unit": "%"}, {"measurement": "remaining binding at 10 µM", "setting": "CSNK1D", "result": 88, "unit": "%"}, {"measurement": "remaining binding at 10 µM", "setting": "ABL1-phosphorylated", "result": 100, "unit": "%"}, {"measurement": "remaining binding at 10 µM", "setting": "CDK7", "result": 89, "unit": "%"}, {"measurement": "remaining binding at 10 µM", "setting": "PDPK1", "result": 56, "unit": "%"}, {"measurement": "remaining binding at 10 µM", "setting": "RAF1", "result": 95, "unit": "%"}, {"measurement": "remaining binding at 10 µM", "setting": "ULK2", "result": 95, "unit": "%"}, {"measurement": "remaining binding at 10 µM", "setting": "ADCK3", "result": 93, "unit": "%"}, {"measurement": "remaining binding at 10 µM", "setting": "AKT2", "result": 94, "unit": "%"}, {"measurement": "remaining binding at 10 µM", "setting": "PAK2", "result": 94, "unit": "%"}, {"measurement": "remaining binding at 10 µM", "setting": "PKAC-alpha", "result": 74, "unit": "%"}, {"measurement": "remaining binding at 10 µM", "setting": "AXL", "result": 95, "unit": "%"}, {"measurement": "remaining binding at 10 µM", "setting": "EGFR(L858R)", "result": 45, "unit": "%"}, {"measurement": "remaining binding at 10 µM", "setting": "BRAF", "result": 100, "unit": "%"}, {"measurement": "remaining binding at 10 µM", "setting": "[1]", "result": 93, "unit": "%"}, {"measurement": "remaining binding at 10 µM", "setting": "DCAMKL1", "result": 82, "unit": "%"}, {"measurement": "remaining binding at 10 µM", "setting": "PIK3CA", "result": 63, "unit": "%"}, {"measurement": "remaining binding at 10 µM", "setting": "ERK1", "result": 83, "unit": "%"}, {"measurement": "remaining binding at 10 µM", "setting": "PDGFRB", "result": 92, "unit": "%"}, {"measurement": "remaining binding at 10 µM", "setting": "TIE2", "result": 100, "unit": "%"}, {"measurement": "remaining binding at 10 µM", "setting": "[2]", "result": 76, "unit": "%"}, {"measurement": "remaining binding at 10 µM", "setting": "BRAF(V600E)", "result": 100, "unit": "%"}, {"measurement": "remaining binding at 10 µM", "setting": "ABL1-nonphosphorylated", "result": 72, "unit": "%"}, {"measurement": "remaining binding at 10 µM", "setting": "KIT", "result": 90, "unit": "%"}, {"measurement": "remaining binding at 10 µM", "setting": "PIK3C2B", "result": 91, "unit": "%"}, {"measurement": "remaining binding at 10 µM", "setting": "MAP3K4", "result": 100, "unit": "%"}, {"measurement": "remaining binding at 10 µM", "setting": "MKNK2", "result": 95, "unit": "%"}, {"measurement": "remaining binding at 10 µM", "setting": "FAK", "result": 100, "unit": "%"}, {"measurement": "remaining binding at 10 µM", "setting": "FLT3", "result": 100, "unit": "%"}, {"measurement": "remaining binding at 10 µM", "setting": "PIM1", "result": 95, "unit": "%"}, {"measurement": "remaining binding at 10 µM", "setting": "CDK11", "result": 73, "unit": "%"}, {"measurement": "remaining binding at 10 µM", "setting": "CHEK1", "result": 82, "unit": "%"}, {"measurement": "remaining binding at 10 µM", "setting": "MLK1", "result": 79, "unit": "%"}]}
